In paper PMC8162404, “Proteomimetic surface fragments distinguish targets by function” (Chemical Science, 2020):

Experiments:
[1] = molecular target: T1, Gal-1 (Homo sapiens, UniProt P09382); experiment: Competition pull-down with lactose; assay type: binding; settings: H14 library; lactose 10 mM; read-out: Surface mapping KD (apparent), competition
T1 construct: made in house; host or cells: E. coli BL21(DE3)
Procedure, shortened: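 His6-tagged proteins immobilized on Co-NTA resin at 64 µM final with 64-member LSM foldamer sublibraries (1 M each, as printed) in pH 7.4 HEPES/NaCl buffers (Ca2+/TCEP per target), 30 min RT; competitor peptides 200 µM final, lactose 10 mM for Gal-1. Bound fractions from LC-MS loss vs protein-free resin; KD assuming 1:1 binding.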

[2] = molecular target: T2, CaM (Bos taurus, UniProt P62157); experiment: Competition pull-down with native ligand TRPV1-Ct15; assay type: binding, bovine; settings: H14 library; competitor peptide 200 µM; read-out: Surface mapping KD (apparent), competition
T2 construct: made in house; host or cells: E. coli BL21 (DE3)

[3] = molecular target: T2, CaM; experiment: Pull-down assay with immobilized protein and LSM libraries; assay type: binding, bovine; settings: H14 library; 1:2 stoichiometry assumed; read-out: Surface mapping KD (apparent)
Procedure, shortened: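 CaM buffer was 20 mM HEPES pH 7.4, 150 mM NaCl, 5 mM CaCl2. LSM sublibrary members ([…]) incubated 30 min, RT, with equimolar His-tagged protein on Co-NTA resin. HPLC-MS measured unbound probes; bound fraction relative to resin-only background gave dissociation constants.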

[4] = molecular target: T3, S100B (Homo sapiens, UniProt P04271); experiment: Competition pull-down with native ligand RSK1 (689–735); assay type: binding; settings: H14 library; competitor peptide 200 µM; read-out: Surface mapping KD (apparent), competition
T3 construct: made in house; host or cells: Escherichia coli BL21(DE3)
T3 sequence (P04271 1-92): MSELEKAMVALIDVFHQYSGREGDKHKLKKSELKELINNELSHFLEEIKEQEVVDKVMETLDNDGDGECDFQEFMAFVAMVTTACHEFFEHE

[5] = molecular target: T1, Gal-1; experiment: Pull-down assay with immobilized protein and LSM libraries; assay type: binding; settings: H14 library; 1:1 binding assumed; read-out: Surface mapping KD (apparent)
Procedure, shortened: (§1)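 Buffers were HEPES pH 7.4 with 150 mM NaCl, plus 1 mM TCEP and 1 mM CaCl2 (50 mM HEPES) for S100A4 and S100B, 1 mM TCEP for Gal-1, and no additive for RecQ-WH. Immobilized protein at 64 µM was equilibrated 30 min with the LSM sublibrary, and unbound probes were measured by LC-MS.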

[6] = molecular target: T3, S100B; experiment: as above; assay type: binding; settings: H14 library; 1:1 binding assumed; read-out: Surface mapping KD (apparent)
Procedure, shortened: as §1

[7] = molecular target: T4, S100A4 (Homo sapiens, UniProt P26447); experiment: as above; assay type: binding; settings: H14 library; 1:1 binding assumed; read-out: Surface mapping KD (apparent)
T4 construct: made in house; host or cells: Escherichia coli BL21(DE3)
Procedure, shortened: as §1

T4 sequence (P26447 whole entry): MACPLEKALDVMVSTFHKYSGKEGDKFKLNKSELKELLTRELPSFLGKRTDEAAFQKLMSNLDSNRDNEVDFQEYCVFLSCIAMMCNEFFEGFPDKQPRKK
T1 sequence (P09382 whole entry): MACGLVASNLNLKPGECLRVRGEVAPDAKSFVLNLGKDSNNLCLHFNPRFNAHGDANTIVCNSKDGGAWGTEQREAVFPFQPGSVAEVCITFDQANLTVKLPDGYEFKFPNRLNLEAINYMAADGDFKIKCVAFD

Row | SMILES | Kd [1] [µM] | Kd [2] [µM] | Kd [3] [µM] | Kd [4] [µM] | Kd [5] [µM] | Kd [6] [µM] | Kd [7] [µM]
1 | NC(=O)CC[C@@H](CC(=O)N[C@H]1CCCC[C@@H]1C(N)=O)NC(=O)[C@H]1CCCC[C@@H]1NC(=O)[C@H]1CCCC[C@@H]1NC(=O)C[C@H](CO)NC(=O)[C@H]1CCCC[C@@H]1N [H14 SQ] | 460 | 292 | 176 | 445 | 275 | – | –
2 | NC(=O)C[C@@H](CC(=O)N[C@H]1CCCC[C@@H]1C(N)=O)NC(=O)[C@H]1CCCC[C@@H]1NC(=O)[C@H]1CCCC[C@@H]1NC(=O)C[C@H](CC(N)=O)NC(=O)[C@H]1CCCC[C@@H]1N [H14 NN] | 444 | 290 | 162 | 120 | 246 | – | –
3 | C[C@@H](O)[C@@H](CC(=O)N[C@H]1CCCC[C@@H]1C(=O)N[C@H]1CCCC[C@@H]1C(=O)N[C@@H](CC(N)=O)CC(=O)N[C@H]1CCCC[C@@H]1C(N)=O)NC(=O)[C@H]1CCCC[C@@H]1N [H14 TN] | 460 | 292 | 176 | 445 | 275 | – | –
4 | NC(=O)[C@H]1CCCC[C@@H]1NC(=O)C[C@H](Cc1ccc(O)cc1)NC(=O)[C@H]1CCCC[C@@H]1NC(=O)[C@H]1CCCC[C@@H]1NC(=O)C[C@H](CO)NC(=O)[C@H]1CCCC[C@@H]1N [H14 SY] | 348 | 244 | 90 | 109 | 318 | 225 | –
5 | CC(C)C[C@@H](CC(=O)N[C@H]1CCCC[C@@H]1C(=O)N[C@H]1CCCC[C@@H]1C(=O)N[C@@H](C)CC(=O)N[C@H]1CCCC[C@@H]1C(N)=O)NC(=O)[C@H]1CCCC[C@@H]1N [H14 LA] | 425 | – | 8 | 294 | 160 | 170 | 34
6 | NC(=O)CC[C@@H](CC(=O)N[C@H]1CCCC[C@@H]1C(N)=O)NC(=O)[C@H]1CCCC[C@@H]1NC(=O)[C@H]1CCCC[C@@H]1NC(=O)C[C@H](CC(N)=O)NC(=O)[C@H]1CCCC[C@@H]1N [H14 NQ] | – | 222 | 190 | 478 | 257 | – | –
7 | CSCC[C@@H](CC(=O)N[C@H]1CCCC[C@@H]1C(=O)N[C@H]1CCCC[C@@H]1C(=O)N[C@@H](CC(N)=O)CC(=O)N[C@H]1CCCC[C@@H]1C(N)=O)NC(=O)[C@H]1CCCC[C@@H]1N [H14 MN] | 495 | – | 122 | 449 | 399 | – | –
8 | CSCC[C@@H](CC(=O)N[C@H]1CCCC[C@@H]1C(=O)N[C@H]1CCCC[C@@H]1C(=O)N[C@@H](CO)CC(=O)N[C@H]1CCCC[C@@H]1C(N)=O)NC(=O)[C@H]1CCCC[C@@H]1N [H14 MS] | – | 431 | 106 | 391 | – | – | 320
9 | CSCC[C@@H](CC(=O)N[C@H]1CCCC[C@@H]1C(=O)N[C@H]1CCCC[C@@H]1C(=O)N[C@@H](CCC(N)=O)CC(=O)N[C@H]1CCCC[C@@H]1C(N)=O)NC(=O)[C@H]1CCCC[C@@H]1N [H14 MQ] | – | 489 | 145 | 394 | – | – | 476
10 | C[C@@H](CC(=O)N[C@H]1CCCC[C@@H]1C(=O)N[C@H]1CCCC[C@@H]1C(=O)N[C@H](CC(=O)N[C@H]1CCCC[C@@H]1C(N)=O)Cc1c[nH]c2ccccc12)NC(=O)[C@H]1CCCC[C@@H]1N [H14 AW] | – | 297 | 2 | 127 | 203 | 42 | 42
11 | CC[C@H](C)[C@@H](CC(=O)N[C@H]1CCCC[C@@H]1C(=O)N[C@H]1CCCC[C@@H]1C(=O)N[C@H](CC(=O)N[C@H]1CCCC[C@@H]1C(N)=O)[C@@H](C)O)NC(=O)[C@H]1CCCC[C@@H]1N [H14 IT] | 333 | – | 51 | 373 | 185 | 142 | 19
12 | CSCC[C@@H](CC(=O)N[C@H]1CCCC[C@@H]1C(N)=O)NC(=O)[C@H]1CCCC[C@@H]1NC(=O)[C@H]1CCCC[C@@H]1NC(=O)C[C@H](CC(=O)O)NC(=O)[C@H]1CCCC[C@@H]1N [H14 DM] | 397 | 322 | – | 159 | – | – | –
13 | CC(C)[C@@H](CC(=O)N[C@H]1CCCC[C@@H]1C(N)=O)NC(=O)[C@H]1CCCC[C@@H]1NC(=O)[C@H]1CCCC[C@@H]1NC(=O)C[C@H](C)NC(=O)[C@H]1CCCC[C@@H]1N [H14 AV] | 201 | – | 42 | 316 | 100 | 153 | 6
14 | NC(=O)CC[C@@H](CC(=O)N[C@H]1CCCC[C@@H]1C(N)=O)NC(=O)[C@H]1CCCC[C@@H]1NC(=O)[C@H]1CCCC[C@@H]1NC(=O)C[C@H](Cc1ccc(O)cc1)NC(=O)[C@H]1CCCC[C@@H]1N [H14 YQ] | 439 | – | 123 | 449 | 238 | 480 | 227
15 | NC(=O)C[C@@H](CC(=O)N[C@H]1CCCC[C@@H]1C(N)=O)NC(=O)[C@H]1CCCC[C@@H]1NC(=O)[C@H]1CCCC[C@@H]1NC(=O)C[C@H](Cc1ccc(O)cc1)NC(=O)[C@H]1CCCC[C@@H]1N [H14 YN] | 271 | – | 111 | 476 | 313 | – | 435
16 | CC(C)C[C@@H](CC(=O)N[C@H]1CCCC[C@@H]1C(=O)N[C@H]1CCCC[C@@H]1C(=O)N[C@H](CC(=O)N[C@H]1CCCC[C@@H]1C(N)=O)[C@@H](C)O)NC(=O)[C@H]1CCCC[C@@H]1N [H14 LT] | – | – | 39 | 294 | 336 | 162 | 66
17 | CC[C@H](C)[C@@H](CC(=O)N[C@H]1CCCC[C@@H]1C(N)=O)NC(=O)[C@H]1CCCC[C@@H]1NC(=O)[C@H]1CCCC[C@@H]1NC(=O)C[C@H](C)NC(=O)[C@H]1CCCC[C@@H]1N [H14 AI] | – | – | 13 | 238 | 248 | 108 | 7
18 | CSCC[C@@H](CC(=O)N[C@H]1CCCC[C@@H]1C(N)=O)NC(=O)[C@H]1CCCC[C@@H]1NC(=O)[C@H]1CCCC[C@@H]1NC(=O)C[C@H](C)NC(=O)[C@H]1CCCC[C@@H]1N [H14 AM] | 487 | – | 98 | 359 | 307 | 256 | 10
19 | CC(C)[C@@H](CC(=O)N[C@H]1CCCC[C@@H]1C(=O)N[C@H]1CCCC[C@@H]1C(=O)N[C@@H](C)CC(=O)N[C@H]1CCCC[C@@H]1C(N)=O)NC(=O)[C@H]1CCCC[C@@H]1N [H14 VA] | 375 | – | 38 | 393 | 114 | 299 | 35
20 | C[C@@H](O)[C@@H](CC(=O)N[C@H]1CCCC[C@@H]1C(N)=O)NC(=O)[C@H]1CCCC[C@@H]1NC(=O)[C@H]1CCCC[C@@H]1NC(=O)C[C@H](Cc1ccc(O)cc1)NC(=O)[C@H]1CCCC[C@@H]1N [H14 YT] | – | – | 30 | 403 | 396 | 416 | 222
21 | CC[C@H](C)[C@@H](CC(=O)N[C@H]1CCCC[C@@H]1C(=O)N[C@H]1CCCC[C@@H]1C(=O)N[C@@H](C)CC(=O)N[C@H]1CCCC[C@@H]1C(N)=O)NC(=O)[C@H]1CCCC[C@@H]1N [H14 IA] | – | – | 16 | 296 | 247 | 108 | 7
